Among the data in patent US5972953A, “Brain cell protective agent” (priority 1993, dated 1999) are EC50 values, retold here.

For one assay, the system named is cultured nerve cells (cerebral cortex). In words: cells. The class given is cell-based, Wistar rat. The note with it: Rattus norvegicus, Cerebral cortex neuron, 24 h, read-out: ED50.
As to `Cc1cccc(/C=C/C(=O)N(CC(C)C)[C@@H]2CC[C@@]3(O)[C@H]4Cc5ccc(O)c6c5[C@@]3(CCN4CC3CC3)[C@H]2O6)c1` [Compound 57, 17-cyclopropylmethyl-3,14β-dihydroxy-4,5α-epoxy-6β-(N-isobutyl-3-methylcinnamamido)morphinan], the EC50 is 0.66 µM.

Staying with this assay, now noted: Rattus norvegicus, Cerebral cortex neuron; 10 mM glutamate, 24 hours at 37° C., LDH leakage; read-out: ED50 (the source's name).
On to `CN(C(=O)/C=C/c1ccoc1)[C@@H]1CC[C@@]2(O)[C@H]3Cc4ccc(O)c5c4[C@@]2(CCN3CC2CC2)[C@H]1O5` (relative stereo) [Compound 43, 17-cyclopropylmethyl-3,14β-dihydroxy-4,5α-epoxy-6β-[N-methyl-trans-3-(3-furyl)acrylamido]morphinan], for which the EC50 stood at 32.6 µM. The same measure, in the same setting: to `CN(C(=O)/C=C/c1ccco1)[C@@H]1CC[C@@]2(O)[C@H]3Cc4ccc(O)c5c4[C@@]2(CCN3CC2CC2)[C@H]1O5` (relative stereo) [Compound 53, 17-cyclopropylmethyl-3,14β-dihydroxy-4,5α-epoxy-6β-[N-methyl-trans-3-(2-furyl)acrylamido]morphinan] belongs 18.2 µM.

`CN(C(=O)/C=C/c1ccsc1)[C@@H]1CC[C@@]2(O)[C@H]3Cc4ccc(O)c5c4[C@@]2(CCN3CC2CC2)[C@H]1O5` (relative stereo) [Compound 54, 17-cyclopropylmethyl-3,14β-dihydroxy-4,5α-epoxy-6β-[N-methyl-trans-3-(3-thienyl)acrylamido]morphinan]: the EC50 was 13.5 µM. On the same count and under the same terms, to `O=C(/C=C/c1ccoc1)S[C@@H]1CC[C@@]2(O)[C@H]3Cc4ccc(O)c5c4[C@@]2(CCN3CC2CC2)[C@H]1O5` (relative stereo) [Compound 119, 17-cyclopropylmethyl-4,5α-epoxy-3,14β-dihydroxy-6β-[trans-3-(3-furyl)acryloylthio]morphinan] belongs 1.47 µM; to `CCN(Cc1ccccc1)[C@@H]1CC[C@@]2(O)[C@H]3Cc4ccc(O)c5c4[C@@]2(CCN3CC2CC2)[C@H]1O5` [Compound 5, 17-cyclopropylmethyl-3,14β-dihydroxy-4,5α-epoxy-6β-(N-ethylbenzylamino)morphinan], 24.6 µM; to `CC(C)N(Cc1ccccc1)[C@@H]1CC[C@@]2(O)[C@H]3Cc4ccc(O)c5c4[C@@]2(CCN3CC2CC2)[C@H]1O5` [Compound 6, 17-cyclopropylmethyl-3,14β-dihydroxy-4,5α-epoxy-6β-(N-isopropylbenzylamino)morphinan], 1.93 µM. The same measure, in the same setting: the value for `CC(C)CN(Cc1ccccc1)[C@@H]1CC[C@@]2(O)[C@H]3Cc4ccc(O)c5c4[C@@]2(CCN3CC2CC2)[C@H]1O5` [Compound 7, 17-cyclopropylmethyl-3,14β-dihydroxy-4,5α-epoxy-6β-(N-isobutylbenzylamino)morphinan] was 0.32 µM. Still for that read-out and setting: to `CCCCN(Cc1ccccc1)[C@@H]1CC[C@@]2(O)[C@H]3Cc4ccc(O)c5c4[C@@]2(CCN3CC2CC2)[C@H]1O5` [Compound 8, 17-cyclopropylmethyl-3,14β-dihydroxy-4,5α-epoxy-6β-(N-butylbenzylamino)morphinan] belongs 1.2 µM. Turning to `CCCCCN(Cc1ccccc1)[C@@H]1CC[C@@]2(O)[C@H]3Cc4ccc(O)c5c4[C@@]2(CCN3CC2CC2)[C@H]1O5` [Compound 9, 17-cyclopropylmethyl-3,14β-dihydroxy-4,5α-epoxy-6β-(N-pentylbenzylamino)morphinan], the EC50 came to 0.29 µM. Same read-out and setting: to `Oc1ccc2c3c1O[C@H]1[C@H](N(CCc4ccccc4)Cc4ccccc4)CC[C@@]4(O)[C@@H](C2)N(CC2CC2)CC[C@]314` [Compound 10, 17-cyclopropylmethyl-3,14β-dihydroxy-4,5α-epoxy-6β-(N-2-phenethylbenzylamino)morphinan] belongs 0.28 µM; to `Oc1ccc2c3c1O[C@H]1[C@H](N(Cc4ccccc4)CC4CCCCC4)CC[C@@]4(O)[C@@H](C2)N(CC2CC2)CC[C@]314` [Compound 11, 17-cyclopropylmethyl-3,14β-dihydroxy-4,5α-epoxy-6β-[N-(cyclohexylmethyl)benzylamino]morphinan], 0.17 µM; to `Oc1ccc2c3c1O[C@H]1[C@H](N(CCCc4ccccc4)Cc4ccccc4)CC[C@@]4(O)[C@@H](C2)N(CC2CC2)CC[C@]314` [Compound 12, 17-cyclopropylmethyl-3,14β-dihydroxy-4,5α-epoxy-6β-(N-3-phenylpropylbenzylamino) morphinan], 0.13 µM.

`Oc1ccc2c3c1O[C@H]1[C@H](N(CCCCc4ccccc4)Cc4ccccc4)CC[C@@]4(O)[C@@H](C2)N(CC2CC2)CC[C@]314` [Compound 13, 17-cyclopropylmethyl-3,14β-dihydroxy-4,5α-epoxy-6β-(N-4-phenylbutylbenzylamino) morphinan]: the EC50 is 0.21 µM. On the same count and under the same terms, the value for `Oc1ccc2c3c1O[C@H]1[C@H](N(Cc4ccccc4)CC(c4ccccc4)c4ccccc4)CC[C@@]4(O)[C@@H](C2)N(CC2CC2)CC[C@]314` [Compound 14, 17-cyclopropylmethyl-3,14β-dihydroxy-4,5α-epoxy-6β-[N-(2,2-diphenylethyl)benzylamino)morphinan] was 0.11 µM; that for `CN(C(=O)C1CCCCC1)[C@H]1CC[C@@]2(O)[C@H]3Cc4ccc(O)c5c4[C@@]2(CCN3CC2CC2)[C@H]1O5` [Compound 31, 17-cyclopropylmethyl-3,14β-dihydroxy-4,5α-epoxy-6α-(N-methylcyclohexylcarboxamido)morphinan] was 2.53 µM. On the same count and under the same terms, to `O=C(Cc1ccc(Cl)c(Cl)c1)N[C@H]1CC[C@@]2(O)[C@H]3Cc4ccc(O)c5c4[C@@]2(CCN3CC2CC2)[C@H]1O5` [Compound 36, 17-cyclopropylmethyl-3,14β-dihydroxy-4,5α-epoxy-6α-(3,4-dichlorophenylacetoamido) morphinan] belongs 1.01 µM. Same read-out and setting: the value for `CC(C)CN(C(=O)CCCCCc1ccccc1)[C@H]1CC[C@@]2(O)[C@H]3Cc4ccc(O)c5c4[C@@]2(CCN3CC2CC2)[C@H]1O5` [Compound 37, 17-cyclopropylmethyl-3,14β-dihydroxy-4,5α-epoxy-6α-(N-isobutyl-6-phenylhexanoamido)morphinan] was 0.06 µM; that for `CC(C)CN(C(=O)Cc1ccc(Cl)c(Cl)c1)[C@@H]1CC[C@@]2(O)[C@H]3Cc4ccc(O)c5c4[C@@]2(CCN3CC2CC2)[C@H]1O5` [Compound 39, 17-cyclopropylmethyl-3,14β-dihydroxy-4,5α-epoxy-6β-(N-isobutyl-3,4-dichlorophenylacetoamido)morphinan] was 0.39 µM; that for `CN(C(=O)c1ccccc1)[C@@H]1CC[C@@]2(O)[C@H]3Cc4ccc(O)c5c4[C@@]2(CCN3CC2CC2)[C@H]1O5` [Compound 45, 17-cyclopropylmethyl-3,14β-dihydroxy-4,5α-epoxy-6β-(N-methylbenzamido)morphinan] was 3.72 µM. For `CN(C(=O)Cc1ccccc1)[C@@H]1CC[C@@]2(O)[C@H]3Cc4ccc(O)c5c4[C@@]2(CCN3CC2CC2)[C@H]1O5` [Compound 47, 17-cyclopropylmethyl-3,14β-dihydroxy-4,5α-epoxy-6β-(N-methylphenylacetoamido)morphinan], the EC50 worked out at 17.1 µM.

As to `CCCCOC(=O)N(C)[C@@H]1CC[C@@]2(O)[C@H]3Cc4ccc(O)c5c4[C@@]2(CCN3CC2CC2)[C@H]1O5` [Compound 48, 17-cyclopropylmethyl-3,14β-dihydroxy-4,5α-epoxy-6β-(N-methylbutyroxycarbamido)morphinan], the EC50 came out at 7.04 µM. The same measure, in the same setting: to `CCCCCC(=O)N(C)[C@@H]1CC[C@@]2(O)[C@H]3Cc4ccc(O)c5c4[C@@]2(CCN3CC2CC2)[C@H]1O5` [Compound 49, 17-cyclopropylmethyl-3,14β-dihydroxy-4,5α-epoxy-6β-(N-methylhexanoamido)morphinan] belongs 29.9 µM; to `COc1cccc(/C=C/C(=O)N(C)[C@@H]2CC[C@@]3(O)[C@H]4Cc5ccc(O)c6c5[C@@]3(CCN4CC3CC3)[C@H]2O6)c1` [Compound 50, 17-cyclopropylmethyl-3,14β-dihydroxy-4,5α-epoxy-6β-(N-methyl-3-methoxycinnamamido)morphinan], 3.44 µM. On the same count and under the same terms, the value for `CN(C(=O)CCC1CCCC1)[C@@H]1CC[C@@]2(O)[C@H]3Cc4ccc(O)c5c4[C@@]2(CCN3CC2CC2)[C@H]1O5` [Compound 51, 17-cyclopropylmethyl-3,14β-dihydroxy-4,5α-epoxy-6β-(N-methyl-3-cyclopentylpropioamido)morphinan] was 13.6 µM; that for `CN(C(=O)c1ccc2ccccc2c1)[C@@H]1CC[C@@]2(O)[C@H]3Cc4ccc(O)c5c4[C@@]2(CCN3CC2CC2)[C@H]1O5` [Compound 52, 17-cyclopropylmethyl-3,14β-dihydroxy-4,5α-epoxy-6β-(N-methyl-2-naphthamido)morphinan] was 1.49 µM; that for `CN(C(=O)/C=C/c1ccccc1C(F)(F)F)[C@@H]1CC[C@@]2(O)[C@H]3Cc4ccc(O)c5c4[C@@]2(CCN3CC2CC2)[C@H]1O5` [Compound 55, 17-cyclopropylmethyl-3,14β-dihydroxy-4,5α-epoxy-6β-(N-methyl-2-trifluoromethylcinnamamido)morphinan] was 1.73 µM.

On to `CN(C(=O)/C=C/c1ccc(C(F)(F)F)cc1)[C@@H]1CC[C@@]2(O)[C@H]3Cc4ccc(O)c5c4[C@@]2(CCN3CC2CC2)[C@H]1O5` [Compound 56, 17-cyclopropylmethyl-3,14β-dihydroxy-4,5α-epoxy-6β-(N-methyl-4-trifluoromethylcinnamamido)morphinan], for which the EC50 was 1.08 µM. Same read-out and setting: the value for `CC(C)CN(C(=O)CCCCCc1ccccc1)[C@@H]1CC[C@@]2(O)[C@H]3Cc4ccc(O)c5c4[C@@]2(CCN3CC2CC2)[C@H]1O5` [Compound 58, 17-cyclopropylmethyl-3,14β-dihydroxy-4,5α-epoxy-6β-(N-isobutyl-6-phenylhexanoamido)morphinan] was 0.1 µM; that for `CC(C)CN(C(=O)CCCCCCCc1ccccc1)[C@@H]1CC[C@@]2(O)[C@H]3Cc4ccc(O)c5c4[C@@]2(CCN3CC2CC2)[C@H]1O5` [Compound 59, 17-cyclopropylmethyl-3,14β-dihydroxy-4,5α-epoxy-6β-(N-isobutyl-8-phenyloctanoamido) morphinan] was 0.48 µM.
